Experimental data published in PMC11278660, “Molecular, Genetic, and Biochemical Characterization of OXA-484 Carbapenemase, a Difficult-to-Detect R214G Variant of OXA-181” (Microorganisms, 2024).
Read-outs that look alike come from different tables or passages of the source.

Columns and labels:
OXA-484 [1] = system: T1, OXA-484; experiment: UV spectrophotometry, initial rates, Eadie-Hofstee plot; type: biochemical, Escherichia coli; conditions: 30 °C, 100 mM sodium phosphate, pH 7.0
T1 construct: gene blaOXA-484; mature beta-lactamase AA20-265 in pET41b(+), expressed in E. coli BL21(DE3), purified; gene 798 bp; natural variant equal to OXA-181 with R214G
Source text: UV spectrophotometry, initial rates, Eadie-Hofstee plot on OXA-484

OXA-484 [2] = system: T1, OXA-484; experiment: inhibition of beta-lactam hydrolysis; type: biochemical, Escherichia coli; conditions: reporter substrate not stated

SMILES	Km (OXA-484 [1]; read-out: Km (μM) / OXA-484)	further results
C[C@@H](O)[C@H]1C(=O)N2C(C(=O)O)=C(SCCN=CN)C[C@H]12 [Imipenem]	6 ± 2.1 µM	–
CO/N=C(\C(=O)N[C@@H]1C(=O)N2C(C(=O)O)=C(COC(C)=O)CS[C@H]12)c1csc(N)n1 [Cefotaxime]	–	Km (OXA-484 [1]; read-out: Km (μM) / OXA-181): > 1000 µM
CC(=O)OCC1=C(C(=O)O)N2C(=O)[C@@H](NC(=O)Cc3cccs3)[C@H]2SC1 [Cefalotin]	37 ± 2.6 µM	–
CC1(C)S[C@@H]2[C@H](NC(=O)Cc3ccccc3)C(=O)N2[C@H]1C(=O)O [Benzylpenicillin]	33 ± 1.9 µM	–
CO[C@@]1(NC(=O)C(C(=O)O)c2ccsc2)C(=O)N2[C@@H](C(=O)O)C(C)(C)S[C@@H]21 (stereo partly shown) [Temocillin]	178 ± 25.1 µM	–
O=C(O)[C@H]1/C(=C/CO)O[C@@H]2CC(=O)N21 [clavulanic acid]	–	IC50 (OXA-484 [2]): 19 µM
C[C@]1(Cn2ccnn2)[C@H](C(=O)O)N2C(=O)C[C@H]2S1(=O)=O [tazobactam]	–	IC50 (OXA-484 [2]): 1.09 µM
C[C@@H](O)[C@H]1C(=O)N2C(C(=O)O)=C(S[C@@H]3CN[C@H](C(=O)Nc4cccc(C(=O)O)c4)C3)[C@H](C)[C@H]12 [Ertapenem]	27 ± 1.2 µM	–
CC1(C)S[C@@H]2[C@H](NC(=O)[C@H](N)c3ccccc3)C(=O)N2[C@H]1C(=O)O [Ampicillin]	653 ± 72.2 µM	–
C[C@@H](O)[C@H]1C(=O)N2C(C(=O)O)=C(S[C@@H]3CN[C@H](C(=O)N(C)C)C3)[C@H](C)[C@H]12 [Meropenem]	263 ± 9.4 µM	–
